Assay results taken from patent publication US9095565B2, “Methods for treating blood disorders” (Phoenicia Biosciences, Inc., priority 2006, dated 2015).

What was measured:
γ-globin mRNA = γ-globin mRNA by RT-PCR in erythroid colonies cultured from cord blood; type: cell-based, human; conditions: for Concentration required: increase in fetal globin mRNA, erythroid colonies from cord blood; for No. of Positive responses: positive cultures/cultures tested; for fetal globin induction: 3 cultures
Description: γ-globin mRNA was analyzed in control and treated erythroid colonies cultured from cord blood, by RT-PCR.

[1] = test system: Erythroid colonies (BFU-E); assay: Experiment 2: erythroid colonies (BFU-E) cultured from patients with beta thalassemia; type: cell-based, human; conditions: optimal panel of growth factors
Description: (§1) Erythroid burst-forming units (BFU-E) (erythroid progenitors) and colony-forming units granulocyte-macrophage (CFU-GM) (myeloid colonies) were cultured in semi-solid or in two-phase suspension media, with or without hematopoietic growth factors at high levels (e.g., erythropoietin at 3 U/ml) or reduced levels (BFU-E cell proliferation was evaluated by enumeration in colonies developing in the presence of reduced amounts of erythropoietin (0.5 U/ml) rather than 3 U (or 3000 mU)/ml, which is standard for these experimental systems), from cord blood or the peripheral blood of several types of humans. Experiments were carried out on samples derived from 1) β-thalassemia patients who expressed variable levels of fetal globin at baseline (and in untreated control cultures) and represent a variety of potential individual responses, 2) from normal umbilical cord blood samples, which express 40-50% fetal globin at baseline (and in untreated control cultures), 3) from CD34+ cells isolated from normal adult peripheral blood, which expressed low levels of fetal globin in untreated control cultures and at baseline; and 4) from peripheral blood of patients with sickle cell disease who were receiving treatment with hydroxyurea. These biological samples provide a range of potential difficulty in stimulating fetal globin expression in human patients.
Erythroid colonies were cultured from patients with beta thalassemia, either without any test compounds (Control), only an optimal panel of hematopoietic growth factors, or with one of the test compounds M, P, T, 2-methyl-1-benzofuran-4-carboxylic acid, V, W, X, Y, AK, AC, or AI. […] Colony numbers were increased above the control cultures (% BFU-E/Control) by anywhere from 25% to 230%. Each of the listed test compounds was tested in at least 5 different patients' blood and the differences were statistically significant.

[2] = test system: cells expressing fetal globin (F-cells); assay: Experiment 1: proportion of F-cells in hematopoietic colonies by FACScan; type: cell-based, human; conditions: same low concentrations as for fetal globin mRNA induction
Description: as §1
Hematopoietic colonies were enumerated with or without (+/−) the test compounds, and compared to colonies which developed in the presence of hematopoietic growth factors alone from the same subject (untreated control colonies), and proportions of cells expressing fetal globin (F-cells) were analyzed by FACScan analysis.

BFU-E = BFU-E cultured from cord blood; type: cell-based, human
Description: as §1
In a related study, BFU-E cultured from cord blood, was tested with or without compound M, P, R, T, W, Y, Z, AI, F, or 3-(5-chlorothien-3-yl)acrylic acid.

γ globin promoter = assay: β/γ-globin promoter driven reporter gene assay; type: cell-based; conditions: Table 2
myeloid colonies = assay: Experiment 3: myeloid colonies in cord blood cultured without added growth factors; type: cell-based, human; conditions: no added growth factors
Description: as §1
Control colonies were established in cultures with no added growth factors to support myelopoiesis, in Iscove's Modified Dulbecco's Media (IMDM) methylcellulose media with charcoal-absorbed fetal bovine serum, beta mercaptoethanol, BSA.

fetal globin mRNA = assay: Fetal globin induction in phlebotomized anemic baboons; type: in vivo, baboon; conditions: Baboon 5002, 50 mg/kg
Description: Juvenile baboons were catheterized with venous and arterial catheters, and were phlebotomized a set amount of blood daily to maintain anemia with a hemoglobin level of 7.0-7.5 g/dl, from a baseline normal hemoglobin level of (12-13 g/dl). Normal saline was infused to replace the amount of blood withdrawn. This degree of phlebotomy exchanges the blood volume every 10-20 days.
Fetal globin mRNA was analyzed at baseline anemia before and following administration of test compounds. Globin chain protein synthesis confirmed the mRNA findings.
Following establishment of the stable level of anemia, a test compound was administered once/day, either intravenously or orally, and blood was withdrawn through the arterial catheter for analysis of globin mRNA or for analysis of the test compound in the plasma by HPLC-MS. Pharmacokinetic profiles were established from the plasma levels and oral bioavailability (comparing area under the curve between IV and oral plasma levels) was determined for the test compounds.
In anemic Baboon 5002, baseline fetal globin mRNA, assayed by RNAse protection, was 26% of non-alpha globin. With treatment with compound Y at 5 mg/kg/dose, fetal globin mRNA increased to 48% of non-alpha globin, an 85% increase over the baseline level. Treatment with compound AK at 50 mg/kg induced a 51% fetal globin mRNA increase, a 96% increase over the baseline level. […] The human equivalent dose is 20% of these doses, or 1 mg/kg, 10 mg/kg, or 8 mg/kg respectively. Thus, these 3 compounds are highly suitable for pharmaceutical compositions at doses that human patients can readily tolerate.

γ-globin gene reporter = assay: Related study: relative luciferase reporter gene induction; type: cell-based
Description: (§2) In a related study, the relative luciferase reporter gene induction, γ-globin gene induction, and F cell production was tested for several of the candidate compounds. The relative in vitro γ-globin gene reporter stimulation for the tested compounds was as follows: compound P>M>W=R=Y. The relative in vitro γ-globin gene induction for the tested compounds was as follows: P>R=M>Y>W>. The relative in vitro F-cell production was as follows: W>Y>R>M>P. The relative potency for F-cell production was as follows: R>M>Y>P>W.

γ-globin gene = assay: Related study: relative in vitro γ-globin gene induction; type: cell-based
Description: as §2

F-cell = assay: Related study: in vitro F cell production; type: cell-based
Description: as §2

Erythroid colonies = assay: Example 7: erythroid colonies cultured with low Erythropoietin (0.5 U/ml) and compound Y enantiomers; type: cell-based, human
Description: The proliferative activity of compound Y—S enantiomer was tested in vitro in erythroid colonies cultured from peripheral blood of 3 sources of individuals: sickle cell anemia patients who were taking Hydroxyurea and have suppression of their endogenous erythropoiesis, a normal adult subject, and two cord blood samples. The erythroid cultures were established with low concentrations of Erythropoietin (0.5 U/ml) alone and with one or the other enantiomer of compound Y or the racemic mixture, or with high concentrations of EPO (3 Units/ml, =3000 mU/ml, 100-fold the normal physiologic concentration).

## Cc1cc2c(C(=O)O)cccc2o1 [2-methyl-1-benzofuran-4-carboxylic acid]
γ-globin mRNA
  Concentration required: 5 µM
  No. of Positive responses: 6/6
[1]
  number of erythroid colonies compared to matched control cultures: increased the number of colonies
[2]
  proportion of F-cells above the percentage in untreated controls: significant increases

## O=C(O)C=Cc1csc(Cl)c1 [3-(5-chlorothien-3-yl)acrylic acid]
γ-globin mRNA
  Concentration required: 30 µM
BFU-E
  numbers of BFU-E colonies compared to controls: increased numbers of colonies
[2]
  proportion of F-cells above the percentage in untreated controls: significant increases

## O=C(O)Cn1ccc(=O)cc1 [AA]
γ globin promoter
  % γ globin promoter induction (above untreated control): ** (‘**’ indicates a 100%-200% increase)

## O=C(O)C1CCc2snnc2C1 (stereo not drawn) [AB]
γ globin promoter
  % γ globin promoter induction (above untreated control): ** (‘**’ indicates a 100%-200% increase)

## O=C(O)Cn1cc(Cl)c([N+](=O)[O-])n1 [AC]
[1]
  number of erythroid colonies compared to matched control cultures: increased the number of colonies
γ globin promoter
  % γ globin promoter induction (above untreated control): ** (‘**’ indicates a 100%-200% increase)

## Cn1cnnc1SCC(=O)O [AD]
γ globin promoter
  % γ globin promoter induction (above untreated control): ** (‘**’ indicates a 100%-200% increase)

## O=C(O)CSc1nnc(S)s1 [AE]
γ globin promoter
  % γ globin promoter induction (above untreated control): ** (‘**’ indicates a 100%-200% increase)

## O=C(CC1(C(=O)O)CCCCC1)c1cccs1 [AF]
γ globin promoter
  % γ globin promoter induction (above untreated control): * (‘*’ indicates a 80-100% increase)

## O=C1CC(C(=O)O)Cc2ccsc21 (stereo not drawn) [AG]
γ globin promoter
  % γ globin promoter induction (above untreated control): ** (‘**’ indicates a 100%-200% increase)

## Cc1cc(SCC(=O)O)cs1 [AH]
γ globin promoter
  % γ globin promoter induction (above untreated control): ** (‘**’ indicates a 100%-200% increase)

## CCOc1ccc(C(=O)O)cc1 [AI]
Myeloid colonies
  production of myeloid colonies compared to untreated control: stimulated production of myeloid colonies
BFU-E
  numbers of BFU-E colonies compared to controls: increased numbers of colonies
[1]
  number of erythroid colonies compared to matched control cultures: increased the number of colonies
γ globin promoter
  % γ globin promoter induction (above untreated control): ** (‘**’ indicates a 100%-200% increase)

## O=C(O)CCC1(c2ccc(Cl)s2)CCCCC1 [AJ]
γ globin promoter
  % γ globin promoter induction (above untreated control): ** (‘**’ indicates a 100%-200% increase)

## O=[N+]([O-])c1cc(S(=O)(=O)O)ccc1F [AK]
Fetal globin mRNA
  increase over the baseline level of fetal globin mRNA: 96%
Fetal globin mRNA; baseline 26%
  fetal globin mRNA (% of non-alpha globin): 51%
[1]
  number of erythroid colonies compared to matched control cultures: increased the number of colonies
γ globin promoter
  % γ globin promoter induction (above untreated control): ** (‘**’ indicates a 100%-200% increase)

## O=C(O)/C=C/c1ccnc2ccccc12 [F]
BFU-E
  numbers of BFU-E colonies compared to controls: increased numbers of colonies
γ globin promoter
  % γ globin promoter induction (above untreated control): *** (‘***’ indicates an over 200% increase of γ globin promoter induction over untreated controls)
[2]
  proportion of F-cells above the percentage in untreated controls: significant increases

## O=C(O)CN1C(=O)S/C(=C/c2ccccc2O)C1=O [K]
γ globin promoter
  % γ globin promoter induction (above untreated control): * (‘*’ indicates a 80-100% increase)

## O=C(O)CNc1ccc(SC(F)(F)F)cc1 [N]
γ globin promoter
  % γ globin promoter induction (above untreated control): *** (‘***’ indicates an over 200% increase of γ globin promoter induction over untreated controls)
[2]
  proportion of F-cells above the percentage in untreated controls: significant increases

## COc1cc(OC)cc(Oc2ccccc2C(=O)O)c1 [O]
γ globin promoter
  % γ globin promoter induction (above untreated control): * (‘*’ indicates a 80-100% increase)

## COc1cc(OC)cc(SC(C(=O)O)C(C)C)c1 (stereo not drawn) [Q]
γ globin promoter
  % γ globin promoter induction (above untreated control): ** (‘**’ indicates a 100%-200% increase)

## COc1ccc(C(N)CC(=O)O)cc1OC (stereo not drawn) [R]
γ-globin gene reporter
  relative in vitro γ-globin gene reporter stimulation (rank order): P>M>W=R=Y
γ-globin gene
  relative in vitro γ-globin gene induction (rank order): P>R=M>Y>W
BFU-E
  numbers of BFU-E colonies compared to controls: increased numbers of colonies
F-cell
  relative in vitro F-cell production (rank order): W>Y>R>M>P
  relative potency for F-cell production (rank order): R>M>Y>P>W
γ globin promoter
  % γ globin promoter induction (above untreated control): *** (‘***’ indicates an over 200% increase of γ globin promoter induction over untreated controls)
[2]
  proportion of F-cells above the percentage in untreated controls: significant increases

## O=C(O)Cc1[nH]c(=O)cc(O)c1C(=O)O [S]
γ globin promoter
  % γ globin promoter induction (above untreated control): ** (‘**’ indicates a 100%-200% increase)

## O=C1CSc2ccc(C(=O)O)cc2N1 [T]
BFU-E
  numbers of BFU-E colonies compared to controls: increased numbers of colonies
[1]
  number of erythroid colonies compared to matched control cultures: increased the number of colonies
γ globin promoter
  % γ globin promoter induction (above untreated control): ** (‘**’ indicates a 100%-200% increase)
[2]
  proportion of F-cells above the percentage in untreated controls: significant increases

## COc1cccc(SCC(=O)O)c1 [V]
γ-globin mRNA
  Concentration required: 5 µM
  No. of Positive responses: 6/6
[1]
  number of erythroid colonies compared to matched control cultures: increased the number of colonies
γ globin promoter
  % γ globin promoter induction (above untreated control): ** (‘**’ indicates a 100%-200% increase)
[2]
  proportion of F-cells above the percentage in untreated controls: significant increases

## O=C(O)c1ccc(-c2ccccc2[N+](=O)[O-])o1 [X]
Myeloid colonies
  production of myeloid colonies compared to untreated control: stimulated production of myeloid colonies
[1]
  number of erythroid colonies compared to matched control cultures: increased the number of colonies
γ globin promoter
  % γ globin promoter induction (above untreated control): ** (‘**’ indicates a 100%-200% increase)
[2]
  proportion of F-cells above the percentage in untreated controls: significant increases

## COc1cc(OC)nc(S[C@@H](C(=O)O)C(C)C)n1 [Y + R]
Erythroid colonies
  erythroid cell proliferation: does not stimulate cell proliferation
γ-globin mRNA
  fetal globin induction: demonstrated fetal globin inducing action
  Concentration required: 5 µM
  No. of Positive responses: 2/3

## COc1cc(OC)nc(S[C@H](C(=O)O)C(C)C)n1 [Y − S]
Erythroid colonies
  erythroid cell proliferation: stimulates erythroid cell proliferation significantly
Erythroid colonies; low EPO 0.5 U/ml
  range of more erythroid colonies than in the racemic mixture: 38-50%
Erythroid colonies; low EPO 0.5 U/ml, same concentration
  mean more erythroid colonies than in the racemic mixture: 45%
γ-globin mRNA
  fetal globin induction: did not induce fetal globin in 2 of (the same) 3 cultures
  Concentration required: 5 µM
  No. of Positive responses: 1/3

## O=C(O)c1cccc(Cn2cc(Cl)cn2)c1 [Z]
BFU-E
  numbers of BFU-E colonies compared to controls: increased numbers of colonies
γ globin promoter
  % γ globin promoter induction (above untreated control): ** (‘**’ indicates a 100%-200% increase)
[2]
  proportion of F-cells above the percentage in untreated controls: significant increases

## EPO: Erythropoietin, high concentration 3 Units/ml in erythroid cultures
Erythroid colonies; high EPO 3 Units/ml
  mean more colonies than cultures with racemic mix or R enantiomer in low EPO: 35%
  range of more colonies than cultures with racemic mix or R enantiomer in low EPO: 25-45%
